What was measured:
[1] = molecular target: T1, O-acylisopeptide of Aβ (Homo sapiens, UniProt P05067); test: Aβ aggregation inhibition test (thioflavine T fluorescence); assay type: biochemical; settings: final sample concentration 30 μM, Aβ O-acylisopeptide 10 μM, pH 7.4, 37° C., 1% DMSO; DMSO control defined as 100
T1 construct: containing O-acylisopeptide of Aβ (10 μM)
Protocol: A test sample solution (solution in DMSO) was added into a 0.1 M phosphate buffer solution (pH 7.4, 50 μL) containing O-acylisopeptide of Aβ (10 μM) (final sample concentration: 30 μM, 1% DMSO), and the mixture was incubated at 37° C. for an arbitrary time. Then, an aliquot (10 μL) of the reaction solution was added to a mixed solution of a thioflavine T solution (50 μM thioflavine T, 10 μL) and a 50 mM glycine-NaOH buffer (pH 8.5, 396 μL) and immediately mixed therewith, and the fluorescence intensity of thioflavine T was measured. In the fluorescence intensity measurement, 440 nm was used as an excitation wavelength, and 480 nm was used as a fluorescent wavelength.

[2] = tested on: Aβ; settings: background statement on the known pentapeptide; cited from earlier work
Chain of Aβ (P05067 672-711 limits assumed): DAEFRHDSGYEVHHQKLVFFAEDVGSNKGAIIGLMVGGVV

T1 sequence (P05067 672-713 limits assumed): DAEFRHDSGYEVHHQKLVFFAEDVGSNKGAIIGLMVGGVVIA

Compound | Aggregation inhibition ratio (lower value means stronger inhibitory activity) [1] | Aβ aggregation inhibitory activity [2]
CC(C)CCNC(=O)c1cc(Cc2ccccc2)cc(Oc2ccccc2)n1 [Compound 1, 4-Benzyl-6-phenoxy-N-isoamylpicolinamide] | 61 | 
CC(C)CCNC(=O)c1cc(Cc2ccc3ccccc3c2)cc(Oc2ccccc2)n1 [Compound 2, 4-(Naphthalen-2-yl)methyl-6-phenoxy-N-isoamylpicolinamide] | 52 | 
CC(C)CCCNC(=O)c1cc(Cc2ccccc2)cc(Oc2ccccc2)n1 [Compound 3, 4-Benzyl-6-phenoxy-N-(4-methylpentyl)picolinamide] | 58 | 
CC(C)CCNC(=O)c1cc(Cc2ccccc2)cc(OC2CCCCC2)n1 [Compound 4, 4-Benzyl-6-cyclohexyloxy-N-isoamylpicolinamide] | 60 | 
CC(C)CCNC(=O)c1cc(Cc2ccccc2)cc(OCc2ccccc2)n1 [Compound 5, 6-Benzyloxy-4-benzyl-N-isoamylpicolinamide] | 75 | 
CC(C)CCOc1cc(Cc2ccccc2)cc(C(=O)NCCc2ccccc2)n1 [Compound 6, 4-Benzyl-6-(3-methylbutoxy)-N-phenylethylpicolinamide] | 60 | 
O=C(NC1C2CC3CC(C2)CC1C3)c1nc(Cc2ccccc2)cc(Oc2ccccc2)n1 (centres unmarked) [Compound 12, N-(Adamantan-2-yl)-4-benzyl-6-phenoxypyrimidine-2-carboxamide] | 40 | 
L-[Lys-Leu-Val-Phe-Phe] (KLVFF) [(known), used as control] |  | very weak
